Experimental data as given in BigSolDB 2.1.

Nc1cccnc1
solubility (mole fraction)
Details | 283.15 K | 288.15 K | 293.15 K | 298.15 K | 303.15 K | 308.15 K | 313.15 K | 318.15 K | 323.15 K
in ethanol | 0.438 | 0.476 | 0.518 | 0.566 | 0.612 | 0.66 | 0.71 | 0.764 | 0.821
in toluene | 0.0297 | 0.0427 | 0.0646 | 0.0971 | 0.152 | 0.223 | 0.313 | 0.418 | 0.546
